Results: patent US20020005386A1, “Water based oil dispersant” (Polychemical Corporation, priority 1999, published 2002)

Experiments:
Mysidopsis bahia = assay: Dispersant toxicity testing, 48 hour LC50; settings: in vivo
Procedure: Dispersant toxicity testing was performed by Coastal Bioanalysts.
This toxicity data was obtained using the concentrated product.

[1] = Surfactant screening test, visual emulsification of Prudhoe Bay Crude in river (sea) water; settings: 1st set: pure surfactant, 10 ml added to 100 microliter PBC in 120 ml water; shaken 50 times, stand 10 min
Procedure: 120 ml of the river (sea) water is taken in a 130 ml bottle. Add 100 micro liter(μl) of Prudhoe Bay Crude to the bottle. Add […] of the pure test surfactant. The ratio of the surfactant to oil is 1:10, as per the spec. (the only difference is instead of 100 μl of the 1:10 mixture, the volume added was 110 μl) the mix was shaken vigorously 50 times and allowed to stand 10 min. to evaluate the effectiveness of the system and compare it to COREXIT 9500 at the same ratio.
The first set was with pure surfactants, the 2nd set was with two surfactants combination with 10 μl, in a 1:3 ratio and the 3rd was with a 3 or more surfactants system with 1:3 ratio but 10 μl, 20 μl, or 30 μl addition. The results are tabulated below:
10 μl added unless otherwise stated.
A combination of the above selected surfactants was conceived and formulations with the following variations were evaluated: […]

Structure (SMILES)	LC50 of the Control Toxicant, M. bahia (Mysidopsis bahia)	APPEARANCE STABILITY OF EMULSION [1]
CCCCCCCCCCCCOS(=O)(=O)[O-].[Na+] [Dss]	The Control Toxicant (Dss): M. bahia 9.82 ppm	–
CCCCCCCC/C=C\CCCCCCCC(=O)OCC(O)CO (centres unmarked) [GMO, Glyceryl mono oleate]	–	Not good
